Article PMC8638259 (Biochemistry, 2021)
“And” between values parts separate entries of the source, which are not always exact repeats. Equal entries are not always repeated. “Also recorded” adds a separate entry of the source. Where two headings read alike, the source gives them in different places. Marks after values point to notes of the source that are not given here.

How the values were obtained:
[1] = target: T1, human Mat2A (Homo sapiens, UniProt P31153); assay: Isothermal titration calorimetry (ITC) binding to Mat2A; conditions: for binding to Mat2A (ITC): in the absence of ATP
T1 construct: His6 (N, cleaved yes); TEV protease cleavage site (N, cleaved yes); made in house; host or cells: E. coli BL21 STAR (DE3)
Procedure: Prior to performing ITC, proteins (approximately 1 mL volume) were dialyzed using D-Tube Dialyzers (Maxi 100–3000 μL, MWCO 6–8 kDa) (Novagen) against 1 L of buffer A for 2–4 h at 4 °C with agitation using a magnetic stirring bar. […] Titrations were performed at 20 °C. Protein concentrations were determined by A280 using a UV-2550 spectrophotometer. The protein and ligand concentrations that were used are indicated in the legends of Figures 5 and 6. ITC measurements were performed on a MicroCal PEAQ-ITC calorimeter (Malvern Panalytical). Data were analyzed using the MicroCal PEAQ-ITC analysis software supplied by the manufacturer using nonlinear regression with the One Set of Sites model. For each experiment, the heat produced or consumed associated with ligand dilution was measured and subtracted from the raw data.

[2] = target: T2, Mat2A/Mat2B complex (Homo sapiens, UniProt P31153); assay: Coupled phosphate detection assay (assay 1) with the Mat2A/Mat2B complex; assay type: biochemical; conditions: for Km: Mat2A + Mat2B (250 nM Mat2A, 600 nM Mat2B), pH 7.5, 22 °C
T2 construct: His6 (N, cleaved yes); TEV protease cleavage site (N, cleaved yes); made in house; host or cells: E. coli BL21 STAR (DE3)

[3] = target: T1, human Mat2A; assay: MESG EnzChek coupled phosphate detection assay (assay 1), Mat2A initial rates; assay type: biochemical; set-up: key to type of inhibition (product inhibition) / inhibition pattern (dead-end inhibition): U indicates uncompetitive inhibition; NC indicates noncompetitive inhibition; conditions: for Km: average of five independent experiments ± SD
[4] = target: T1, human Mat2A; assay: LC-MS SAM detection assay (assay 2), Mat2A initial rates; assay type: biochemical; set-up: key to type of inhibition (product inhibition by phosphate): U indicates uncompetitive inhibition; NC indicates noncompetitive inhibition; conditions: pH 7.5, 22 °C; for Km: Mat2A only, single experiment, three replicates ± SE; for Ki: read-out: inhibition constant Kis (product inhibition by phosphate)
Description: In all cases, initial velocities were obtained from the linear regions of the reaction progress curves (<200 s, Figures S3C and S5).
The LC–MS assay monitors SAM directly and was developed to confirm the kinetic parameters that were obtained in the phosphate coupled assay and to carry out product inhibition studies by Pi, which was not possible using the phosphate coupled assay. The amount of SAM produced was quantified using a standard curve (Figure S3F). Prior to LC–MS, 1:1 methanol/acetonitrile + 0.1% (v/v) formic acid was added to the samples. LC–MS was performed using an Agilent 1200 LC system fitted with a Cogent Diamond Hydride Type C silica column (2.1 × 150 mm, dead volume 315 μL). Solvent A was LC–MS grade H2O + 0.1% (v/v) formic acid. Solvent B was acetonitrile + 0.1% (v/v) formic acid. The gradient started at 85% B dropping to 5% B over 14 min. Flow rate was 0.4 mL/min. Mass spectrometry was performed using an Agilent Accurate Mass 6230 TOF apparatus in positive-ion mode. The doubly charged SAM ion was detected at an m/z of 200.0759.
Product and dead-end inhibition data showing competitive, noncompetitive, or uncompetitive patterns were fitted to eqs 2–4, respectively. [drawing 2] 2 [drawing 3] 3 [drawing 4] 4 where I is the inhibitor concentration; S is the concentration of the variable substrate; Km is the Michaelis constant for the variable substrate; and Kis and Kii are the slope and intercept inhibition constants, respectively.
Saturation kinetics data were fitted to eq 5. [drawing 5] 5

[5] = system: Mat2A + Mat2B; set-up: method as in PMID 28553945; conditions: after addition of Mat2B, cited from earlier work
[6] = system: T3, Mat2A; conditions: cited from earlier work
T3 construct: His6 (N, cleaved yes); TEV protease cleavage site (N, cleaved yes); made in house; host or cells: E. coli BL21 STAR (DE3)

[7] = target: T2, Mat2A/Mat2B complex; assay: Kinetic constants of Mat2A/Mat2B complex after preincubation at 37 °C; assay type: biochemical; conditions: 60 nM Mat2A + 30 nM Mat2B preincubated 15 min at 37 °C; assay at pH 7.5, 22 °C; ATP 1.25 mM; read-out: Km(L-Met)
[8] = system: T3, Mat2A; assay: Stability assay: Mat2A activity after preincubation at 37 °C; assay type: biochemical, human
[9] = target: Mat2B (Homo sapiens) (UniProt Q9NZL9); conditions: cited from earlier work
[10] = saturating Mat2B, ATP varied, saturating L-Met 600 μM
[11] = variable substrate ATP, saturating L-Met 0.6 mM
[12] = variable substrate L-Met, saturating ATP 0.5 or 1 mM

With `Nc1ncnc2c1ncn2[C@@H]1O[C@H](COP(=O)(O)OP(=O)(O)OP(=O)(O)O)[C@@H](O)[C@H]1O` [ATP, adenosine 5′-triphosphate] the Kd [1] was 80 ± 30 µM, the Km ([2]; read-out: Km(ATP)) was 50 ± 5 µM and the Ki ([3]; Mat2A only, dissociation constant of enzyme-ATP complex from eq 1, pH 7.5, 22 °C, read-out: Ki(ATP)) was 349 ± 66 µM. For the same compound, the Km ([3]; Mat2A only, pH 7.5, 22 °C, read-out: Km(ATP)) was 50 ± 10 µM and the Km ([4]; read-out: Km(ATP)) was 55 ± 10 µM.

In the case of `CSCC[C@H](N)C(=O)O` [L-Met, L-methionine], the Km ([5]; read-out: Km for L-Met) is listed as 2.5 µM, the Km ([6]; without Mat2B, read-out: Km for L-Met) is listed as 14 µM and the “binding to Mat2A (ITC)” value ([1]; ITC, 20 °C) is listed as “No significant change in heat; also recorded: No binding”. The Km [7] was 3.9 ± 0.1 µM, the Km ([2]; read-out: Km(L-Met)) was 4 ± 1 µM and the Km ([8]; Mat2A only (60 nM) preincubated 15 min at 37 °C, assay at pH 7.5, 22 °C, ATP 1.25 mM, read-out: Km(L-Met)) was 3.5 ± 1.3 µM. It also gave a Km ([3]; Mat2A only, pH 7.5, 22 °C, read-out: Km(L-Met)) of 5 ± 2 µM and a Km ([4]; read-out: Km(L-Met)) of 8 ± 2 µM.

With `NC1(C(=O)O)CCCC1` [L-cLeu, L-cycloleucine, reference compound] the “binding to Mat2A (ITC)” value ([1]; ITC, 20 °C) was “no significant change in heat”, the “binding to Mat2A (ITC)” value ([1]; ITC, 20 °C, listed as Cycloleucine) was “No binding” and the Kd ([1]; ITC, 20 °C, in the presence of 2 mM ATP) was 25 ± 10 µM. The “extent of inhibition of Mat2A” value [3] was “fully inhibit”, the “substrate activity for Mat2A” value [3] was “not a substrate” and the “inhibition pattern (dead-end inhibition)” value ([3]; variable substrate ATP, nonsaturating L-Met = 0.02 mM, pH 7.5, 22 °C) was “U”. For the same compound, the Ki ([3]; variable substrate L-Met, nonsaturating ATP = 0.07 mM, pH 7.5, 22 °C, read-out: inhibition constant Kis (dead-end inhibition)) was 160 µM and the Ki ([3]; variable substrate L-Met, saturating ATP = 1 mM, pH 7.5, 22 °C, read-out: inhibition constant Kis (dead-end inhibition)) was 290 µM.

In the case of `C[S+](CC[C@H](N)C(=O)[O-])C[C@H]1O[C@@H](n2cnc3c(N)ncnc32)[C@H](O)[C@@H]1O` (stereo partly drawn) [SAM, S-adenosyl-L-methionine], the IC50 ([5]; read-out: IC50 of product inhibition by SAM) is listed as ~150 µM, the IC50 ([6]; without Mat2B, read-out: IC50 of product inhibition by SAM) is listed as ~300 µM and the “Kii(SAM)” value [2, 10] is listed as 130 ± 40 µM. For the same compound, the “type of inhibition by SAM” value [2, 10] was “uncompetitive”, the “increase in the potency of SAM inhibition in the presence of Mat2B” value ([2]; versus Mat2A alone) was 1.8 fold and the “type of inhibition (product inhibition)” value ([3]; variable substrate ATP, nonsaturating L-Met (0.02 mM), pH 7.5, 22 °C) was “NC ^c”. The Ki ([3]; variable substrate ATP, nonsaturating L-Met (0.02 mM), pH 7.5, 22 °C, read-out: inhibition constant Kis (product inhibition)) was 620 µM, the “type of inhibition (product inhibition)” value ([3]; variable substrate ATP, saturating L-Met 0.6 mM, pH 7.5, 22 °C) was “U ^b” and the “type of inhibition (product inhibition)” value ([3]; variable substrate L-Met, nonsaturating ATP (0.07 mM), pH 7.5, 22 °C) was “NC ^c”. For the same compound, the Ki ([3]; variable substrate L-Met, nonsaturating ATP (0.07 mM), pH 7.5, 22 °C, read-out: inhibition constant Kis (product inhibition)) was 250 µM, the “type of inhibition (product inhibition)” value ([3]; variable substrate L-Met, saturating ATP 0.5 or 1 mM, pH 7.5, 22 °C) was “NC ^b” and the Ki ([3]; variable substrate L-Met, saturating ATP 0.5 or 1 mM, pH 7.5, 22 °C, read-out: inhibition constant Kis (product inhibition)) was 190 µM.

With `O=P(O)(O)O` [phosphate, inorganic phosphate] the “inhibition constant Kii (product inhibition by phosphate)” value [4, 11] was “Kii = 5740 ± 760 ^b μM”, the “type of inhibition (product inhibition by phosphate)” value [4, 11] was “NC ^b” and the Ki [4, 11] was 1290 µM. The “inhibition constant Kii (product inhibition by phosphate)” value [4, 12] was “Kii = 4970 ± 770 ^b μM”, the “type of inhibition (product inhibition by phosphate)” value [4, 12] was “NC ^b” and the Ki [4, 12] was 1580 µM.

In the case of Mat1A (from UniProt Q00266), the Kd [9] is listed as 3 µM.

For “Mat2A: recombinant full-length human methionine adenosyltransferase Mat2A (UniProt P31153)”, the “kcat reported by other groups” value ([6]; different assay methods) is given as 0.27 s^–1 and 0.35 s^–1, the “time to 50% loss of activity” value ([8]; 60 nM Mat2A preincubated in assay buffer at 37 °C, no substrates, no Mat2B) is given as 2.3 min and the kcat ([8]; Mat2A only (60 nM) preincubated 15 min at 37 °C, assay at pH 7.5, 22 °C) is given as 0.09 ± 0.005 ^b s^–1.
